Reference: ChEMBL document CHEMBL4229469, “Small molecule scaffolds that disrupt the Rev1-CT/RIR protein-protein interaction” (Bioorg Med Chem, 2018)
≈ marks a conversion by molar mass, not a printed value. Calls of active or inactive are those of the source. The rule behind the calls is not given here.

How the values were obtained:
[1] = biological target: T1, DNA repair protein REV1 (Homo sapiens) (UniProt Q9UBZ9); assay: Displacement of FAM-labelled polkappa-RIR peptide from recombinant human C-terminal Rev1 (1158 to 1251 residues) expressed in Escherichia coli BL21(DE3) at 10 uM after 1 hr by fluorescence polarization assay relative to control
T1 sequence (whole entry): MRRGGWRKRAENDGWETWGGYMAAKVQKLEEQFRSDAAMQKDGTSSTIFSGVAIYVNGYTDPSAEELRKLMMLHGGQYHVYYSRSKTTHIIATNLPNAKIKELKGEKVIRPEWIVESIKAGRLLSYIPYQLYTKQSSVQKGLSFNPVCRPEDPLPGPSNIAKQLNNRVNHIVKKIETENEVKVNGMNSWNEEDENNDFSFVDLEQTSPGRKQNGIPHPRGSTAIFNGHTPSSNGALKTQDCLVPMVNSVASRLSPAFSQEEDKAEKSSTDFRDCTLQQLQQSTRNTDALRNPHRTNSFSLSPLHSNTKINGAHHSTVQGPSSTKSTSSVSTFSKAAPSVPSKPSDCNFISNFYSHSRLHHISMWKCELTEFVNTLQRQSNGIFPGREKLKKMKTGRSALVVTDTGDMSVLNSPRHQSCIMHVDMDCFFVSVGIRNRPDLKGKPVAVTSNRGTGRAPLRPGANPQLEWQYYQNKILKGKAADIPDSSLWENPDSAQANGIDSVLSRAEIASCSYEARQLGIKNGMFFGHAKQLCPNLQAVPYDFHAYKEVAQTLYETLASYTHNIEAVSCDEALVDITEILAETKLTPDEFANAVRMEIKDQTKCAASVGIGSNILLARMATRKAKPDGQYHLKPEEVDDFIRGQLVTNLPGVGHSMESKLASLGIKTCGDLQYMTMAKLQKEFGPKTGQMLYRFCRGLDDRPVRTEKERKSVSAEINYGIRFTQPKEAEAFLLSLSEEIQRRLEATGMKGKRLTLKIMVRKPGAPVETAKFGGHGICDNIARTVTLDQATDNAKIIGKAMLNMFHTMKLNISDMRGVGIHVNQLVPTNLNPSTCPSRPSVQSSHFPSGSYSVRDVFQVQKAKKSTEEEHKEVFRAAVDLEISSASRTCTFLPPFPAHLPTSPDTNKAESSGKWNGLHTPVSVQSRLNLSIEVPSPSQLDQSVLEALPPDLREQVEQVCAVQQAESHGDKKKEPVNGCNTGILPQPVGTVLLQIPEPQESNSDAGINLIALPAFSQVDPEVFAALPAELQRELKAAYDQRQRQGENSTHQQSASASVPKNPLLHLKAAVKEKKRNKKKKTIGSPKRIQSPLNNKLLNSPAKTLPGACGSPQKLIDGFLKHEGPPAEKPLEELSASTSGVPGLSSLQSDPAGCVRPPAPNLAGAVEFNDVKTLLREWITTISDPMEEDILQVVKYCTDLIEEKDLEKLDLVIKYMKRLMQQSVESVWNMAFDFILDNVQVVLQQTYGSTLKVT

[2] = biological target: T2, DNA repair protein REV1 (Homo sapiens, UniProt Q9UBZ9); assay: Displacement of FAM-labelled polkappa-RIR peptide from recombinant human C-terminal Rev1 (1158 to 1251 residues) expressed in Escherichia coli BL21(DE3) after 1 hr by fluorescence polarization assay
T2 sequence (Q9UBZ9 whole entry): T1 sequence (whole entry)

[3] = Growth inhibition of cisplatin-resistant human U2OS cells after 72 hrs by MTS assay; format: cell-based
[4] = test system: U2OS; assay: Potentiation of cisplatin-induced cytotoxicity in cisplatin-resistant human U2OS cells assessed as cisplatin GI50 at 50 uM after 72 hrs by MTS assay (reference value: 23.9 +/- 1.9 uM); format: functional
[5] = test system: U2OS; assay: Potentiation of cisplatin-induced cytotoxicity in cisplatin-resistant human U2OS cells assessed as cisplatin GI50 at 25 uM after 72 hrs by MTS assay (reference value: 23.9 +/- 1.9 uM); format: functional
[6] = test system: U2OS; assay: Potentiation of cisplatin-induced cytotoxicity in cisplatin-resistant human U2OS cells assessed as cisplatin GI50 at 10 uM after 72 hrs by MTS assay (reference value: 23.9 +/- 1.9 uM); format: functional
[7] = test system: U2OS; assay: Potentiation of cisplatin-induced cytotoxicity in cisplatin-resistant human U2OS cells assessed as increase in cisplatin-induced reduction in colony survival at 20 uM treated for 24 hrs measured after 7 days by Coomassie Brilliant Blue R-250 staining based assay; format: functional, cell-based
[8] = Retention time of the compound in human liver microsomes at 10 uM by LC-MS/MS analysis; format: ADME, microsome
[9] = Solubility of the compound in pH 7.4 phosphate buffered saline
[10] = Solubility of the compound in pH 4 phosphate buffered saline
[11] = Permeability of the compound by PAMPA; format: ADME
[12] = Stability of the compound in pH 7.4 phosphate buffered saline assessed as parent compound remaining at 5 uM; format: physicochemical; conditions: read-out: Stability
[13] = Intrinsic clearance in human liver microsomes at 1 uM; format: ADME, microsome
[14] = Ratio of solubility in pH 7.4 phosphate buffered saline to pH 4 phosphate buffered saline; format: physicochemical; conditions: buffer
[15] = Drug metabolism in human liver microsomes assessed as oxidation at 10 uM after 30 to 60 mins by LC-MS/MS analysis; format: ADME, microsome
[16] = Drug metabolism in human liver microsomes assessed as oxidation and dehydrogenation at 10 uM after 30 to 60 mins by LC-MS/MS analysis; format: ADME, microsome
[17] = Drug metabolism in human liver microsomes assessed as dehydrogenation at 10 uM after 30 to 60 mins by LC-MS/MS analysis; format: ADME, microsome
[18] = Drug metabolism in human liver microsomes assessed as demethylation by measuring 2-(1-acetylpiperidine-4-carboxamido)-5-propylthiophene-3-carboxylic acid formation at 10 uM after 30 to 60 mins by LC-MS/MS analysis; format: ADME, microsome
[19] = Drug metabolism in human liver microsomes assessed as hydrolysis by measuring methyl 2-(piperidine-4-carboxamido)-5-propylthiophene-3-carboxylate formation at 10 uM after 30 to 60 mins by LC-MS/MS analysis; format: ADME, microsome

SMILES	inhibition [1] [%]	IC50 [2] [µM]	Kd [2] [µM]	Ki [2] [µM]	GI50 at 72 h [3] [µM]	GI50 [4] [µM]	further results
CCc1cc(C(=O)OC)c(NC(=O)C2CCN(C(C)=O)CC2)s1	> 85	12.4	23.7	28.8			
CCc1ccc(NC(=O)CN2CCN(c3ccc(F)cc3)CC2)cc1	> 85	2.5	6.5	6.9			
COc1cc2c(cc1OC)CN(Cc1ccc(OCc3ccccc3)cc1)CC2	> 85	11.9	12.6	14.5	> 100	10.1	GI50 [5]: 13.4 µM; GI50 [6]: 16.5 µM; Activity [7]: Active
CCCc1cc(C(=O)O)c(NC(=O)C2CCN(C(C)=O)CC2)s1							Retention_time [8]: 3.8 min
CCn1c2ccccc2c2cc(NC(=O)N3CCC(C(C)=O)CC3)ccc21	> 85	4.6	6.9	8.9			
CCc1ccc(NC(=O)CN2CCN(c3ccccc3)CC2)cc1	> 85	> 50	49.5				
COC(=O)c1cc(C)sc1NC(=O)C1CCN(C(C)=O)CC1	> 85	9.4	8.2	7.4			
Cc1cccc(N2CCN(CC(=O)Nc3ccc(F)cc3)CC2)c1C	> 85	21.1	12.4	14.8			
CC(C)(C)C(=O)N1CCN(c2ccc(NC(=O)c3cccnc3)cc2Cl)CC1	> 85	12.3	18.2	19	> 100	25.9	
CC(=O)N1CCC(C(=O)Nc2sc3c(c2C(N)=O)CCC(C)C3)CC1 (stereo not drawn)	> 85	13.2	12.6	15.7			
CCCCc1ccc(-n2nnc(C(=O)N(C)C3CCS(=O)(=O)C3)c2C)cc1 (stereo not drawn)	> 85	5.9	3.6	4.9	> 100	20.1	GI50 [5]: 25.7 µM
COc1ccc(OC)c(-c2csc(N3CCN(C(=O)c4ccco4)CC3)n2)c1	> 85	6.2	3.7	4.8	> 100	11.8	GI50 [5]: 11.9 µM
CC(=O)N1CCC(C(=O)Nc2sc3c(c2C(=O)NC2CC2)CCC(C)C3)CC1 (stereo not drawn)	> 85	2.5	4.4	4.6	> 100	15.3	GI50 [5]: 24.4 µM; Activity [7]: inactive
CCc1ccc(NC(=O)CN2CCN(c3ccc(OC)cc3)CC2)cc1	> 85	5.5	3.6	3.6			
O=C(CN1CCN(c2ccc(F)cc2)CC1)Nc1ccccc1	> 85	28	42.2	46.6			
CCCc1cc(C(=O)OC)c(NC(=O)C2CCNCC2)s1							Retention_time [8]: 10.58 min
CCCc1cc(C(=O)OCC)c(NC(=O)C2CCN(C(C)=O)CC2)s1	> 85	5.9	7.8	11.6			
Cc1ccc(C(=O)N2CCN(c3ccccc3)CC2)cc1S(=O)(=O)N1CCOCC1	> 85	3.5	2.9	3	> 100	28.2	
CC(=O)C(C)n1c(CN2CCN(c3cccc(Cl)c3)CC2)nc2c1c(=O)n(C)c(=O)n2C (stereo not drawn)	> 85	2.5	2.1	2	> 100	7.8	GI50 [5]: 12.3 µM; GI50 [6]: 19.3 µM
N#Cc1ccc(NC(=O)CN2CCN(c3ccc(F)cc3)CC2)cc1	> 85	> 50	109				
CC(=O)N1CCC(C(=O)Nc2sc3c(c2C(=O)NC2CC2)CCCC3)CC1	> 85	21.5	26.6	31.5			
CCCC1CCc2c(sc(NC(=O)C3CCN(C(C)=O)CC3)c2C(N)=O)C1 (stereo not drawn)	> 85	4.9	9.5	11.9			
CCCc1cc(C(=O)OC)c(NC(=O)C2CCN(C(C)=O)CC2)s1	> 85	4.1	3.5	3.6	> 100	19.6	GI50 [5]: 12.6 µM; solubility [9]: 63.3 µM (≈ 22.3 µg/mL); solubility [10]: 21.1 µM (≈ 7.44 µg/mL); log(permeability) [11]: -4.5; remaining at 5 µM [12]: 95%; CLH [13]: 18.8 µL/min/mg; Ratio [14]: 3; Drug metabolism [15]: Metabolite_Detected; Drug metabolism [16]: Metabolite_Detected; Drug metabolism [17]: Metabolite_Detected; Drug metabolism [18]: Metabolite_Detected; Drug metabolism [19]: Metabolite_Detected
CCS(=O)(=O)N(C)c1ccc(C(=O)N2CCN(c3ccccc3OC)CC2)cc1	> 85	4.6	4.3	4.7	> 100	11.9	GI50 [5]: 13.3 µM
